Measured values from ChEMBL document CHEMBL1201862, “PubChem BioAssay data set” (2004).
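Five compound concentrations were applied to cells in 96-well plates for 48 hours; endpoints were derived by simple linear interpolation of the resulting dose-response curve. GI50 = concentration required for 50% inhibition of growth.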 Calls of active or inactive are those of the source. No stated cut-off is given here; in the data, active = GI50 up to about 1.1 µM and inactive = higher.

Columns and labels:
Assay in all cases: DTP human tumour cell line panel, 48 h
KM12 = system: KM12
SNB-19 = system: SNB-19
NCI-H522 = system: NCI-H522
SF-268 = system: SF-268
HCT-15 = system: HCT-15
SR = system: SR
NCI-H460 = system: NCI-H460
SK-MEL-28 = system: SK-MEL-28
COLO 205 = system: COLO 205
U-251 = system: U-251
OVCAR-3 = system: OVCAR-3
786-0 = system: 786-0
HT-29 = system: HT-29
SF-295 = system: SF-295
SK-MEL-2 = system: SK-MEL-2
HOP-92 = system: HOP-92
K562 = system: K562
RPMI-8226 = system: RPMI-8226
MDA-MB-231 = system: MDA-MB-231

Compound: CN(C)/N=N/c1c[nH]nc1C(N)=O
- GI50 (KM12): > 100 µM (inactive)
- GI50 (SNB-19): > 100 µM (inactive)
- GI50 (NCI-H522): 42.9 µM (inactive)
- GI50 (SF-268): > 100 µM (inactive)
- GI50 (HCT-15): 64.1 µM
- GI50 (SR): 31.3 µM (inactive)
- GI50 (NCI-H460): > 100 µM (inactive)
- GI50 (SK-MEL-28): > 100 µM (inactive)
- GI50 (COLO 205): > 100 µM (inactive)
- GI50 (U-251): > 100 µM (inactive)
- GI50 (OVCAR-3): > 100 µM (inactive)
- GI50 (786-0): > 100 µM (inactive)
- GI50 (HT-29): > 100 µM (inactive)
- GI50 (SF-295): > 100 µM (inactive)
- GI50 (SK-MEL-2): > 100 µM (inactive)
- GI50 (HOP-92): > 100 µM (inactive)
- GI50 (K562): 54.8 µM (inactive)
- GI50 (RPMI-8226): > 100 µM (inactive)

Compound: CC(C)(C)N(Cc1ccc2c(c1)OCO2)C(=O)/C=C\Sc1ccccc1
- GI50 (KM12): 81.8 µM (inactive)
- GI50 (SNB-19): > 100 µM (inactive)
- GI50 (NCI-H522): 6.98 µM (inactive)
- GI50 (MDA-MB-231): > 100 µM (inactive)
- GI50 (HCT-15): 63.8 µM
- GI50 (SR): 4.44 µM (inactive)
- GI50 (SK-MEL-28): > 100 µM (inactive)
- GI50 (COLO 205): 45.1 µM (inactive)
- GI50 (U-251): 63.7 µM (inactive)
- GI50 (OVCAR-3): > 100 µM (inactive)
- GI50 (786-0): > 100 µM (inactive)
- GI50 (HT-29): 28.8 µM (inactive)
- GI50 (SF-295): > 100 µM (inactive)
- GI50 (SK-MEL-2): 25.2 µM (inactive)
- GI50 (HOP-92): 14.2 µM (inactive)
- GI50 (K562): 42.9 µM (inactive)
- GI50 (RPMI-8226): 30.3 µM (inactive)

Compound: Cc1nc2c(=S)[nH]ncc2[nH]1
- GI50 (KM12): > 100 µM (inactive)
- GI50 (SNB-19): > 100 µM (inactive)
- GI50 (NCI-H522): > 100 µM (inactive)
- GI50 (MDA-MB-231): > 100 µM (inactive)
- GI50 (HCT-15): > 100 µM
- GI50 (SK-MEL-28): > 100 µM (inactive)
- GI50 (COLO 205): > 100 µM (inactive)
- GI50 (U-251): > 100 µM (inactive)
- GI50 (OVCAR-3): > 100 µM (inactive)
- GI50 (786-0): > 100 µM (inactive)
- GI50 (HT-29): > 100 µM (inactive)
- GI50 (SF-295): > 100 µM (inactive)
- GI50 (SK-MEL-2): > 100 µM (inactive)
- GI50 (HOP-92): > 100 µM (inactive)
- GI50 (K562): > 100 µM (inactive)
- GI50 (RPMI-8226): > 100 µM (inactive)

Compound: O=C1c2ccccc2C(=O)C1C(c1ccc(F)cc1)C1C(=O)c2ccccc2C1=O
- GI50 (KM12): > 100 µM (inactive)
- GI50 (SNB-19): > 100 µM (inactive)
- GI50 (NCI-H522): > 100 µM (inactive)
- GI50 (SF-268): > 100 µM (inactive)
- GI50 (HCT-15): > 100 µM
- GI50 (SR): 41.5 µM (inactive)
- GI50 (NCI-H460): > 100 µM (inactive)
- GI50 (SK-MEL-28): > 100 µM (inactive)
- GI50 (COLO 205): > 100 µM (inactive)
- GI50 (U-251): > 100 µM (inactive)
- GI50 (OVCAR-3): > 100 µM (inactive)
- GI50 (786-0): > 100 µM (inactive)
- GI50 (HT-29): > 100 µM (inactive)
- GI50 (SF-295): > 100 µM (inactive)
- GI50 (SK-MEL-2): > 100 µM (inactive)
- GI50 (HOP-92): > 100 µM (inactive)
- GI50 (K562): > 100 µM (inactive)
- GI50 (RPMI-8226): 48.3 µM (inactive)

Compound: CC(=O)OCC1OC(OC2CC3C(C)(C)C(O)CC[C@]3(C)C3CCC45CC4(CC[C@H]5C(C)CC(O)C4OC4(C)C)[C@]23C)C(O)C(O)C1O (stereo not given in full)
- GI50 (KM12): 8.04 µM (inactive)
- GI50 (SNB-19): 8 µM (inactive)
- GI50 (NCI-H522): 4.89 µM (inactive)
- GI50 (SF-268): 6.38 µM (inactive)
- GI50 (HCT-15): 8.45 µM
- GI50 (SR): 1.47 µM (inactive)
- GI50 (NCI-H460): 8.91 µM (inactive)
- GI50 (SK-MEL-28): 7.41 µM (inactive)
- GI50 (COLO 205): 7.24 µM (inactive)
- GI50 (U-251): 3.89 µM (inactive)
- GI50 (OVCAR-3): 6.17 µM (inactive)
- GI50 (786-0): 7.57 µM (inactive)
- GI50 (HT-29): 8.38 µM (inactive)
- GI50 (SF-295): 8.24 µM (inactive)
- GI50 (SK-MEL-2): 5.86 µM (inactive)
- GI50 (HOP-92): 5.06 µM (inactive)
- GI50 (K562): 1.85 µM (inactive)
- GI50 (RPMI-8226): 0.711 µM (active)

Compound: Clc1ccc(C2SCc3nc4ccccc4n32)c(Cl)c1 (stereo not given)
- GI50 (KM12): 14.7 µM (inactive)
- GI50 (SNB-19): 18 µM (inactive)
- GI50 (NCI-H522): 15.7 µM (inactive)
- GI50 (SF-268): 16.5 µM (inactive)
- GI50 (HCT-15): 15.6 µM
- GI50 (SR): 14.7 µM (inactive)
- GI50 (NCI-H460): 16.6 µM (inactive)
- GI50 (SK-MEL-28): 16.6 µM (inactive)
- GI50 (COLO 205): 17 µM (inactive)
- GI50 (U-251): 17.9 µM (inactive)
- GI50 (OVCAR-3): 14.1 µM (inactive)
- GI50 (786-0): 17.2 µM (inactive)
- GI50 (HT-29): 16 µM (inactive)
- GI50 (SF-295): 8.36 µM (inactive)
- GI50 (SK-MEL-2): 16.5 µM (inactive)
- GI50 (HOP-92): 2.83 µM (inactive)
- GI50 (K562): 11 µM (inactive)
- GI50 (RPMI-8226): 6.92 µM (inactive)
